Where “and” joins values, the source holds several entries; their conditions need not be identical. Equal entries are not always repeated. Where two headings read alike, the source gives them in different places.
Tests used:
EcFtsZ [1] = molecular target: T1, EcFtsZ (Escherichia coli, UniProt P0A9A6); test: GTP induced EcFtsZ polymerization by light scattering (PK/PEP GTP regeneration system); type: biochemical
T1 construct: made in house; host or cells: E. coli BL21 (DE3)
Method: (§1) Polymerization of FtsZ was determined by light scattering. Light scattering was measured on a Perkin Elmer LS 50 spectrofluorimeter, illuminating with light at a wavelength of 350 nm (excitation) and recording at the same wavelength (emission). Excitation and emission bandwidth were 7 nm and a 4% transmittance filter was used in the emission path. Temperature was kept constant at 30°C.
(§2) Polymerization of FtsZ induced by GTP [with GTP regeneration system PK/PEP (Margalit et al., [2004])] was measured in the absence and the presence of dNAK 4. 12.5 μM FtsZ was pre-incubated in 50 mM HEPES pH 7.3, 50 mM KCl, 10 mM MgCl2, 1% DMSO, and 1 mM PEP. The reaction was started by adding the compound (at the concentration indicated in the figures), 4 units of PK and 1 mM GTP. For each polymerization reaction, a baseline was registered, which corresponds to the light scattering after adding the compound and prior to the induction of polymerization by the addition of GTP and PK.

[2] = system: Pseudomonas aeruginosa BEM12; test: Growth inhibition halos on bacterial lawns; type: cell-based; set-up: key to growth inhibition halo: −: Absence (-) or presence (+) of growth inhibition halos on different bacterial lawns; Absence (-) or presence (+) of growth inhibition halos on different bacterial lawns; conditions: for growth inhibition halo: 5 µl, 37°C 5-6 h
Method: (§3) TABLE SM1. Effect of dNAK 4 tested directly on the growth of different bacterial […]
(§4) Strains Amount of dNAK 4 in DMSO 30% […]
(§5) Absence (-) or presence (+) of growth inhibition halos on different bacterial lawns.
(§6) The bacterial lawns for each strain listed in this Table were prepared as follow:
(§7) Bacterial cells were grown in Müller-Hinton (MH) media until an OD600 = 0.3. 300 µl of each culture was mixed with 5 ml of MH soft agar and poured into a plate containing 20 ml of MH hard agar. Once cooled, 5 µl of dNAK 4 dissolved in DMSO […]
(§8) the top agar and incubated at 37°C during 5-6 h until growth inhibition halos were […]
(§9) growth inhibition halos in any of the strains tested. As positive control the antibiotic minocycline was used. The experiments were performed by triplicate. The bacterial strains used in these experiments belong to our laboratory collection.

[3] = system: Enterobacter aerogenes BEM27; test: Growth inhibition halos on bacterial lawns; type: cell-based; set-up: key to growth inhibition halo: −: Absence (-) or presence (+) of growth inhibition halos on different bacterial lawns; Absence (-) or presence (+) of growth inhibition halos on different bacterial lawns; conditions: for growth inhibition halo: 5 µl, 37°C 5-6 h
Method: as §3, §4, §5, §6, §7, §8, §9

Proteus mirabilis BEM87 = test: Growth inhibition halos on bacterial lawns; type: cell-based; set-up: key to growth inhibition halo: −: Absence (-) or presence (+) of growth inhibition halos on different bacterial lawns; Absence (-) or presence (+) of growth inhibition halos on different bacterial lawns; conditions: for growth inhibition halo: 5 µl, 37°C 5-6 h
Method: as §3, §4, §5, §6, §7, §8, §9

Escherichia coli K12 = test: Growth inhibition halos on bacterial lawns; type: cell-based; set-up: key to growth inhibition halo: −: Absence (-) or presence (+) of growth inhibition halos on different bacterial lawns; Absence (-) or presence (+) of growth inhibition halos on different bacterial lawns; conditions: for growth inhibition halo: 5 µl, 37°C 5-6 h
Method: as §3, §4, §5, §6, §7, §8, §9

Bacillus subtilis BEM54 = test: Growth inhibition halos on bacterial lawns; type: cell-based; set-up: key to growth inhibition halo: −: Absence (-) or presence (+) of growth inhibition halos on different bacterial lawns; Absence (-) or presence (+) of growth inhibition halos on different bacterial lawns; conditions: for growth inhibition halo: 5 µl, 37°C 5-6 h
Method: as §3, §4, §5, §6, §7, §8, §9

BsFtsZ [4] = molecular target: T2, BsFtsZ (Bacillus subtilis, UniProt P17865); test: GDP induced BsFtsZ polymerization by light scattering; type: biochemical; conditions: 32 μM compound, 2 mM GDP, 12.5 μM protein
T2 construct: made in house; host or cells: E. coli DH10B
T2 sequence (P17865 whole entry): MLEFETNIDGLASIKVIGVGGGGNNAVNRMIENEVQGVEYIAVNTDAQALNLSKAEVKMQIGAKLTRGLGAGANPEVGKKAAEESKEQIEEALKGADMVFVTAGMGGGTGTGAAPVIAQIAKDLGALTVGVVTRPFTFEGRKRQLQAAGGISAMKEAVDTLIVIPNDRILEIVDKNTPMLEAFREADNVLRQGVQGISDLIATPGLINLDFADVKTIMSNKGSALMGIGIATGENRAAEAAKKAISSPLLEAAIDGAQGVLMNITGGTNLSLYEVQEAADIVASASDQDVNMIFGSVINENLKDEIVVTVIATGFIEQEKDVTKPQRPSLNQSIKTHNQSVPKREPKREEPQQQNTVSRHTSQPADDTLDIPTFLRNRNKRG
Method: as §1
(§10) Polymerization of FtsZ induced by GDP was measured in the absence and the presence of dNAK 4. 12.5 μM FtsZ was pre-incubated in 50 mM HEPES pH 7.3, 50 mM KCl, 10 mM MgCl2, 1% DMSO, and 2 mM GDP. The reaction was started by adding the compound at 32 μM final concentration.

B. subtilis [5] = test: Live-cell imaging of cell division in CellASIC ONIX2 microfluidic chambers; type: cell-based, Bacillus subtilis; conditions: LB with 32 μM perfused 8 h, 37°C
E. coli K12 = test: Growth curves in liquid Müller-Hinton culture, E. coli; type: cell-based, Escherichia coli; conditions: up to 32 μM, 37°C
Method: (§11) Cells were grown in liquid culture medium Müller Hinton (MH) in the presence and absence of the compound. MH medium was inoculated with an overnight culture of each strain and grown until an OD600 of 0.6 was reached. Both cultures were then diluted to OD600 of 0.1 and subsequently divided into several cultures, where the controls (without the compound and with DMSO) and different concentrations of dNAK 4 were tested. Each experimental condition was assayed in 250 μL, six times, in a 96-well ELISA plate. The cultures were grown under agitation at 37°C in a plate spectrofluorimeter with absorbance module model TECAN Infinite M200 PRO and the OD600 was automatically registered every 15 min for 24 h.

E. coli = test: Live-cell imaging of cell division in CellASIC ONIX2 microfluidic chambers; type: cell-based, Escherichia coli; conditions: LB with 32 μM perfused 8 h, 37°C
Method: In order to evaluate the effect of dNAK 4 at a cellular level, we designed a live-cell imaging approach using the microfluidics platform CellASIC ONIX2 (Merck) coupled to a Lionheart FX automated microscope (BioTek). This setup allowed us to directly monitor the division of E. coli and B. subtilis cells inside microchambers, under a precisely controlled temperature (37°C) and the continuous perfusion of fresh culture medium. The microscope was set up to take one picture of each chamber every 10 min during the whole experiment (20 h), in order to get a continuous view of the division process occurring in a group of cells and its response to the perfusion of dNAK 4. First, cells of each strain were inoculated into separate microchambers, perfusing LB medium for 4 h while monitoring cell growth. Afterwards, LB supplemented with 32 μM dNAK 4 was perfused during the next 8 h. Finally, LB medium without dNAK 4 was perfused during the last 8 h in order to monitor the effect of washing the compound. […] After washing the compound, some B. subtilis cells seemed to partially recover the ability to divide.
2. Live-cell imaging of E. coli and B. subtilis cell division while grown in microfluidic chambers, in the presence or absence of dNAK 4. […]

BsFtsZ [6] = molecular target: T2, BsFtsZ; test: GTP induced BsFtsZ polymerization by light scattering (PK/PEP GTP regeneration system); type: biochemical
Method: as §1, §2

[7] = system: Staphylococcus aureus BEM42; test: Growth inhibition halos on bacterial lawns; type: cell-based; set-up: key: −: Absence (-) or presence (+) of growth inhibition halos on different bacterial lawns; Absence (-) or presence (+) of growth inhibition halos on different bacterial lawns; conditions: 5 µl, 37°C 5-6 h
Method: as §3, §4, §5, §6, §7, §8, §9

tubulin = molecular target: tubulin; set-up: method as in Gutiérrez et al., 2015; conditions: ref Gutiérrez et al., 2015; cited from earlier work
EcFtsZ [8] = molecular target: T1, EcFtsZ; test: GDP induced EcFtsZ polymerization by light scattering; type: biochemical; conditions: 32 μM compound, 2 mM GDP, 12.5 μM protein
Method: as §1, §10

B. subtilis [9] = test: Growth curves in liquid Müller-Hinton culture, B. subtilis; type: cell-based, Bacillus subtilis; conditions: for effective concentration (total growth arrest): liquid culture
Method: as §11

normal and cancer cell = system: normal and cancer cell; set-up: method as in Benites et al., 2016; conditions: ref Benites et al., 2016; cited from earlier work
[10] = calculated from the EcFtsZ polymerization inhibition by the compounds, read-out: IFP (inhibition of EcFtsZ polymerization) expressed as IC50
[11] = at the concentration tested (0.05-2 µg)

T1 sequence (P0A9A6 whole entry): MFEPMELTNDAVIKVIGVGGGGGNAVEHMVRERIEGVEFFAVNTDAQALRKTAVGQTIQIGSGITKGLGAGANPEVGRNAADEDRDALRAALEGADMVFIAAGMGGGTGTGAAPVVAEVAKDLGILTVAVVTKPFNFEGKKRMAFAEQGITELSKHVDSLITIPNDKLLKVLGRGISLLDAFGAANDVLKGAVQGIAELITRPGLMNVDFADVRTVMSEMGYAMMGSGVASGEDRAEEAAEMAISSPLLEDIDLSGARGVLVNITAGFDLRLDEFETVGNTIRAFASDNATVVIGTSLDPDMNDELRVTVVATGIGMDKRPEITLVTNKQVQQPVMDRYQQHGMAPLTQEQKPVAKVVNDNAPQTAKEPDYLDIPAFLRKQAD

## O=C(c1cccs1)c1cc(O)c2ccccc2c1O [dNAK 1]
EcFtsZ [1]; [10]
  IC50: 100 µM

## O=C(c1ccsc1)c1cc(O)c2ccccc2c1O [dNAK 2]
EcFtsZ [1]; [10]
  IC50: 44 µM

## O=C(c1ccco1)c1cc(O)c2ccccc2c1O [dNAK 3]
EcFtsZ [1]; [10]
  IC50: 39 µM

## O=C(c1ccc[nH]1)c1cc(O)c2ccccc2c1O [dNAK 4, (1,4-dihydroxy-naphthalen-2-yl)-(1H-pyrrol-2-yl)-methanone]
[2]; 0.05 µg in DMSO 30%
  growth inhibition halo: −
[2]; 0.1 µg in DMSO 30%
  growth inhibition halo: −
[2]; 0.3 µg in DMSO 30%
  growth inhibition halo: +
[2]; 0.5 µg in DMSO 30%
  growth inhibition halo: +
[2]; 1 µg in DMSO 30%
  growth inhibition halo: +
[2]; 2 µg in DMSO 30%
  growth inhibition halo: +
[2]; bacterial lawn, P. aeruginosa
  amount giving growth inhibition in plate assays: 0.3 to 0.5 µg
[3]; 0.05 µg in DMSO 30%
  growth inhibition halo: −
[3]; 0.1 µg in DMSO 30%
  growth inhibition halo: −
[3]; 0.3 µg in DMSO 30%
  growth inhibition halo: −
[3]; 0.5 µg in DMSO 30%
  growth inhibition halo: −
[3]; 1 µg in DMSO 30%
  growth inhibition halo: −
[3]; 2 µg in DMSO 30%
  growth inhibition halo: −
[3]; [11]
  inhibitory effect in plate assays: no inhibitory effect
Proteus mirabilis BEM87; 0.05 µg in DMSO 30%
  growth inhibition halo: −
Proteus mirabilis BEM87; 0.1 µg in DMSO 30%
  growth inhibition halo: −
Proteus mirabilis BEM87; 0.3 µg in DMSO 30%
  growth inhibition halo: −
Proteus mirabilis BEM87; 0.5 µg in DMSO 30%
  growth inhibition halo: +
Proteus mirabilis BEM87; 1 µg in DMSO 30%
  growth inhibition halo: +
Proteus mirabilis BEM87; 2 µg in DMSO 30%
  growth inhibition halo: +
Proteus mirabilis BEM87; bacterial lawn, P. mirabilis
  amount giving growth inhibition in plate assays: 0.3 to 0.5 µg
Escherichia coli K12; 0.05 µg in DMSO 30%
  growth inhibition halo: −
Escherichia coli K12; 0.1 µg in DMSO 30%
  growth inhibition halo: −
Escherichia coli K12; 0.3 µg in DMSO 30%
  growth inhibition halo: −
Escherichia coli K12; 0.5 µg in DMSO 30%
  growth inhibition halo: −
Escherichia coli K12; 1 µg in DMSO 30%
  growth inhibition halo: −
Escherichia coli K12; 2 µg in DMSO 30%
  growth inhibition halo: −
Escherichia coli K12; [11]
  inhibitory effect in plate assays: no inhibitory effect
Bacillus subtilis BEM54; 0.05 µg in DMSO 30%
  growth inhibition halo: −
Bacillus subtilis BEM54; 0.1 µg in DMSO 30%
  growth inhibition halo: +
Bacillus subtilis BEM54; 0.3 µg in DMSO 30%
  growth inhibition halo: +
Bacillus subtilis BEM54; 0.5 µg in DMSO 30%
  growth inhibition halo: +
Bacillus subtilis BEM54; 1 µg in DMSO 30%
  growth inhibition halo: +
Bacillus subtilis BEM54; 2 µg in DMSO 30%
  growth inhibition halo: +
Bacillus subtilis BEM54; bacterial lawn, B. subtilis
  lowest amount giving growth inhibition in plate assays: 0.1 µg
BsFtsZ [4]
  polymerization of BsFtsZ with GDP: induced
B. subtilis [5]
  effect on growth of B. subtilis cells: complete growth arrest
EcFtsZ [1]; from slope of light scattering increment after depolymerization vs concentration, PK/PEP GTP regeneration system, read-out: IFP expressed as IC50 (converted)
  IC50: 2.3 ± 0.1 µM
EcFtsZ [1]; from steady-state slope of light scattering increment vs concentration, PK/PEP GTP regeneration system, read-out: IFP expressed as IC50 (converted)
  IC50: 4.6 µM and 4.4 µM
E. coli K12
  effect on E. coli K12 growth in liquid culture: no inhibitory effect
E. coli
  effect on growth of E. coli cells: no effect
BsFtsZ [6]
  IC50: 9.13 ± 0.66 µM
[7]; 0.05 µg in DMSO 30%
  growth inhibition halo: −
[7]; 0.1 µg in DMSO 30%
  growth inhibition halo: +
[7]; 0.3 µg in DMSO 30%
  growth inhibition halo: +
[7]; 0.5 µg in DMSO 30%
  growth inhibition halo: +
[7]; 1 µg in DMSO 30%
  growth inhibition halo: +
[7]; 2 µg in DMSO 30%
  growth inhibition halo: +
tubulin
  Kd: 1.02 ± 0.23 µM
EcFtsZ [8]
  polymerization of EcFtsZ with GDP: induced
B. subtilis [9]; 32 μM, during 16 h, Müller-Hinton, 37°C
  B. subtilis growth in liquid culture: no growth
B. subtilis [9]
  effective concentration (total growth arrest): 32 µM
B. subtilis [9]; conversion of 32 μM
  effective concentration (total growth arrest): 8 µg/mL
Normal and cancer cell
  effect on normal and cancer cell proliferation: no effect

## COc1cc(C(=O)c2cc(O)c3ccccc3c2O)cc(OC)c1OC [dNAK 5]
EcFtsZ [1]; [10]
  IC50: 81.5 µM

## O=C(c1ccc[nH]1)c1cc(O)ccc1O [dPAK 4, (2,5-dihydroxy-phenyl)-(1H-pyrrol-2-yl)-methanone]
EcFtsZ [1]; 2-64 µM, 1% DMSO
  inhibitory effect over EcFtsZ polymerization: no inhibitory effect
BsFtsZ [6]; 2-64 µM, 1% DMSO
  inhibitory effect over BsFtsZ polymerization: no inhibitory effect

— article PMC6582257, “Inhibition of Escherichia coli and Bacillus subtilis FtsZ Polymerization and Bacillus subtilis Growth by Dihydroxynaphtyl Aryl Ketones” (Frontiers in Microbiology, 2019)
